{
  "source": "patent US10336682B1",
  "about": "“Hydroxytyrosol shikimic acid ester for treating cardiovascular deceases and a method of preparing the same” (SHAANXI UNIVERSITY OF SCIENCE AND TECHNOLOGY, priority 2019, dated 2019)",
  "key": {"[1]": {"test_system": "blood clot (thrombus)", "assay": "Measurement of thrombus resolution rate: mouse blood clots incubated with test solution", "parameters": "species or system Kunming mice", "details": "for Resolution/% (thrombus resolution rate): 2 mL solution on mouse blood clot, 6 hours at 37° C.", "experimental": "Measurement of Thrombus Resolution Rate in Mice\nExperimental materials: Clean-grade Kunming mice, weighing 20-28 g each, half male and half female; urokinase (Shanghai Maclean Biotechnology Co., Ltd.)\nExperimental methods: 40 healthy Kunming mice were randomly divided into 5 groups according to their body weight, 8 in each group, half male and half female. One group of mice was selected as blank control. 1 mL of blood was taken from each mouse of the blank control group. After the blood was solidified, the formed blood clot (thrombus) was rinse with physiological saline for 30 minutes, and dried and weighed. The average weight of blood clot was calculated as W. Other groups of mice were treated with the same method. The blood clots were rinsed, and placed in cryotubes. 2 mL solutions of urokinase (positive control group), a low dose of hydroxytyrosol shikimic acid ester (experiment group 1), a medium dose of hydroxytyrosol shikimic acid ester (experimental group 2), and a high dose of hydroxytyrosol shikimic acid ester (experimental group 3) were added to the blood clots. For the blank control group, an equal volume of physiological saline was added to the blood clot. After incubating for 6 hours in a 37° C. incubator, the clots were taken out and rinsed with physiological saline for 30 min. After drying and weighing, the average weight of the blood clot was recorded as G, and the resolution rate of the blood clot was calculated according to the following formula. Thrombus Resolution Rate (%)=[(W−G)/W]×100%"}, "[2]": {"test_system": "thromboxane B2 (TXB2)", "assay": "Measurement of TXB2 in rat plasma after intragastric administration", "type": "in vivo, SD rats", "details": "for TXB2 level in rat plasma: after 20 days, male SD rats", "from_the_text": "(§1) Measurement of thromboxane B2 (TXB2), 6-keto prostaglandin F1a (6-Ke-PGF1a) and prostaglandin E2 (PGE2) in rat plasma by enzyme-linked immunosorbent assay\n(§2) Experimental materials: clean grade SD rats, body weight 150-250 g, male; TXB2 radioimmunoassay kit, 6-Ke-PGF1a radioimmunoassay kit, PGE2 radioimmunoassay kit, Shanghai Bairui Biotechnology Co., Ltd.\n(§3) Experimental methods: 32 rats were randomly divided into 4 groups, 8 rats in each group. After 2 days of normal feeding, blood was taken from the jugular vein of each rat, and the plasma was separated and frozen at −20° C. On the next day, rats in the experimental groups were intragastrically administered with low doses of hydroxytyrosol shikimic acid ester (experimental group 1), medium dose of hydroxytyrosol shikimic acid ester (experimental group 2) and high-dose hydroxytyrosol shikimic acid ester (experimental group 3) at a dose of 1 mL/100 g. Rats in the control group were intragastrically administered with the same amount of normal saline. After 20 days, blood was taken from the jugular vein of each rat, anticoagulated, and the plasma was separated and frozen at −20° C. The contents of plasma TXB2, 6-Ke-PGF1A and PGE2 in each group of rats were determined according to TXB2, 6-Ke-PGF1a and PGE2 kit methods."}, "[3]": {"test_system": "prostaglandin E2 (PGE2)", "assay": "Measurement of PGE2 in rat plasma after intragastric administration", "type": "in vivo, SD rats", "details": "for PGE2 level in rat plasma: after 20 days, male SD rats", "from_the_text": "as §1, §2, §3"}, "[4]": {"test_system": "6-keto prostaglandin F1a (6-Ke-PGF1a)", "assay": "Measurement of 6-Ke-PGF1a in rat plasma after intragastric administration", "type": "in vivo, SD rats", "details": "for 6-Ke-PGF1a level in rat plasma: after 20 days, male SD rats", "from_the_text": "as §1, §2, §3"}, "[5]": {"details": "compared with the blank control group, 25-250 mg/Kg · d"}},
  "data": [
    {"molecule": "urokinase [reference compound]", "values": [
      {"measurement": "Resolution/% (thrombus resolution rate)", "setting": "[1]; 0.5 U/mL", "value": "12.38 ± 0.27", "unit": "%"}
    ]},
    {"molecule": "O=C(OCCc1ccc(O)c(O)c1)C1=C[C@@H](O)[C@@H](O)[C@H](O)C1", "note": "[hydroxytyrosol shikimic acid ester]", "values": [
      {"measurement": "TXB2 level in rat plasma", "setting": "[2]; 25 mg/Kg · d intragastric", "value": "4.93 ± 0.12", "unit": "pg/mL"},
      {"measurement": "TXB2 level in rat plasma", "setting": "[2]; 250 mg/Kg · d intragastric", "value": "3.12 ± 0.14", "unit": "pg/mL"},
      {"measurement": "content of TXB2 in rat plasma, in words", "setting": "[2]; [5]", "value": "reduced in a dose-dependent manner"},
      {"measurement": "TXB2 level in rat plasma", "setting": "[2]; intragastric", "value": "4.38 ± 0.22", "unit": "pg/mL"},
      {"measurement": "PGE2 level in rat plasma", "setting": "[3]; 25 mg/Kg · d intragastric", "value": "26.18 ± 0.21", "unit": "pg/mL"},
      {"measurement": "PGE2 level in rat plasma", "setting": "[3]; 50 mg/Kg · d intragastric", "value": "24.22 ± 0.14", "unit": "pg/mL"},
      {"measurement": "PGE2 level in rat plasma", "setting": "[3]; 250 mg/Kg · d intragastric", "value": "20.87 ± 0.19", "unit": "pg/mL"},
      {"measurement": "content of PGE2 in rat plasma, in words", "setting": "[3]; [5]", "value": "reduced in a dose-dependent manner"},
      {"measurement": "Resolution/% (thrombus resolution rate)", "setting": "[1]; 2.5 mg/mL (low dose, experimental group 1)", "value": "6.33 ± 0.19", "unit": "%"},
      {"measurement": "Resolution/% (thrombus resolution rate)", "setting": "[1]; 5 mg/mL (medium dose, experimental group 2)", "value": "7.04 ± 0.41", "unit": "%"},
      {"measurement": "Resolution/% (thrombus resolution rate)", "setting": "[1]; 10 mg/mL (high dose, experimental group 3)", "value": "8.93 ± 0.45", "unit": "%"},
      {"measurement": "blood clot resolution (thrombolytic) effect, in words", "setting": "[1]; compared with the blank control group, 2.5-10 mg/mL", "value": "significant thrombolytic effect"},
      {"measurement": "6-Ke-PGF1a level in rat plasma", "setting": "[4]; 25 mg/Kg · d intragastric", "value": "76.46 ± 0.17", "unit": "pg/mL"},
      {"measurement": "6-Ke-PGF1a level in rat plasma", "setting": "[4]; 50 mg/Kg · d intragastric", "value": "85.40 ± 0.32", "unit": "pg/mL"},
      {"measurement": "6-Ke-PGF1a level in rat plasma", "setting": "[4]; 250 mg/Kg · d intragastric", "value": "81.36 ± 0.28", "unit": "pg/mL"},
      {"measurement": "content of 6-Ke-PGF1a in rat plasma, in words", "setting": "[4]; compared with the blank control group, 25-250 mg/Kg · d, no obvious dose-dependent relationship", "value": "increased"}
    ]}
  ]
}
